According to PMC5064435, “Inhibition of endoplasmic reticulum glucosidases is required for in vitro and in vivo dengue antiviral activity by the iminosugar UV-4” (Antiviral Research, 2016):
Counter-ions that a name gives are not always drawn.

Columns and labels:
Mouse ER α-glucosidase I = biological target: T1, Mouse ER α-glucosidase I (Mus musculus, UniProt Q80UM7); test: enzyme inhibition assay, purified enzyme; format: biochemical; details: read-out: IC50 ^a / UV-4B
T1 construct: gene Mogs
T1 sequence (Q80UM7 1-834): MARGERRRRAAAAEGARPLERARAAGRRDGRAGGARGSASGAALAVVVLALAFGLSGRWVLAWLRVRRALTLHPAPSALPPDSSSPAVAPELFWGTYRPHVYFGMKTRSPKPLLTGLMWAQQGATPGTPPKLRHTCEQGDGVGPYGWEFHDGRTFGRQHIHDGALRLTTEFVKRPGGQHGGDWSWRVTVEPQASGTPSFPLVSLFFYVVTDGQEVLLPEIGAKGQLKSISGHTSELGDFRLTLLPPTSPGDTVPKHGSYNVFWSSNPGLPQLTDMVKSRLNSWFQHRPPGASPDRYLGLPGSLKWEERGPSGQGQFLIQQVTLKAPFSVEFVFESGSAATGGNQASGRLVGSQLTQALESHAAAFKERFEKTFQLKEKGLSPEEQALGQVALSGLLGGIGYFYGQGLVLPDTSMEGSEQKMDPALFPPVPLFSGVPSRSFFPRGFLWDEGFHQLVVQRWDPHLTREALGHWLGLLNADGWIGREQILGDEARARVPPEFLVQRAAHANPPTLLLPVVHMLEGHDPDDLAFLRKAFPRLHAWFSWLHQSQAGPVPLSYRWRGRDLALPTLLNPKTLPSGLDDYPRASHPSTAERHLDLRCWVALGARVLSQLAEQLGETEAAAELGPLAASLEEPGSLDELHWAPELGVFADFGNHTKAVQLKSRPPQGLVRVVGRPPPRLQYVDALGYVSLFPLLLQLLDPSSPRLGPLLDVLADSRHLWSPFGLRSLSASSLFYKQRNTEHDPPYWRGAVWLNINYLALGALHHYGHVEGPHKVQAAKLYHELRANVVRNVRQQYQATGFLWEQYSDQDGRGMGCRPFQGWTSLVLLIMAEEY
Description: enzyme inhibition assay, purified enzyme on Mouse ER α-glucosidase I

[1] = biological target: T2, α-glucosidase II (human MDMΦs) (Homo sapiens, UniProt Q14697); test: free oligosaccharide (Glc1Man4GlcNAc1) accumulation in human MDMΦs; format: cell-based; details: […] h treatment of uninfected cells
T2 construct: gene GANAB; endogenous enzyme in primary human monocyte-derived macrophages; with Glucosidase 2 subunit beta
T2 sequence (Q14697 29-944): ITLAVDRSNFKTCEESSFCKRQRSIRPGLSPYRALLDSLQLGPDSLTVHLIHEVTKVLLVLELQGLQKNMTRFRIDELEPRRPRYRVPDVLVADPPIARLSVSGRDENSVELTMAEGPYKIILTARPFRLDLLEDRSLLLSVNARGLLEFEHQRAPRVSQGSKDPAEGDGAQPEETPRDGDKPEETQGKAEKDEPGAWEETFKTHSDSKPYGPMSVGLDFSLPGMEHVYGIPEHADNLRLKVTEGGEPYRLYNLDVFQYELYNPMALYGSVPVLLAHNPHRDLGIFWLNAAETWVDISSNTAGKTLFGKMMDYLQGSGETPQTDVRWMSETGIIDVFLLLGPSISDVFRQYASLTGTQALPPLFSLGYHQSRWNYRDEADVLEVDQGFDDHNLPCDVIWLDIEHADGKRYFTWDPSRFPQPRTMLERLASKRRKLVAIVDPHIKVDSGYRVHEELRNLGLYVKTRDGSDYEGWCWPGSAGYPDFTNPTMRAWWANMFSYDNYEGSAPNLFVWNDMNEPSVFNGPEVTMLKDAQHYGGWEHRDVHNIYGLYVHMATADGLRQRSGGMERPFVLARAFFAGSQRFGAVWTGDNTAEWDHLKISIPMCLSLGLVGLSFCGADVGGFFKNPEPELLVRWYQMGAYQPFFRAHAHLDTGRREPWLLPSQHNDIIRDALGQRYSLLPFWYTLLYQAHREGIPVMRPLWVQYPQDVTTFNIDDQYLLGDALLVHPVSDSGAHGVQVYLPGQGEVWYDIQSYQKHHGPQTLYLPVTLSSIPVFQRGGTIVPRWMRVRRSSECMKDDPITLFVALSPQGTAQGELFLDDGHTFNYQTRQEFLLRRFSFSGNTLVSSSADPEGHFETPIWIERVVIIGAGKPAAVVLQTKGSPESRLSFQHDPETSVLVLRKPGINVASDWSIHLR
T2 sequence (P14314 15-528 partner): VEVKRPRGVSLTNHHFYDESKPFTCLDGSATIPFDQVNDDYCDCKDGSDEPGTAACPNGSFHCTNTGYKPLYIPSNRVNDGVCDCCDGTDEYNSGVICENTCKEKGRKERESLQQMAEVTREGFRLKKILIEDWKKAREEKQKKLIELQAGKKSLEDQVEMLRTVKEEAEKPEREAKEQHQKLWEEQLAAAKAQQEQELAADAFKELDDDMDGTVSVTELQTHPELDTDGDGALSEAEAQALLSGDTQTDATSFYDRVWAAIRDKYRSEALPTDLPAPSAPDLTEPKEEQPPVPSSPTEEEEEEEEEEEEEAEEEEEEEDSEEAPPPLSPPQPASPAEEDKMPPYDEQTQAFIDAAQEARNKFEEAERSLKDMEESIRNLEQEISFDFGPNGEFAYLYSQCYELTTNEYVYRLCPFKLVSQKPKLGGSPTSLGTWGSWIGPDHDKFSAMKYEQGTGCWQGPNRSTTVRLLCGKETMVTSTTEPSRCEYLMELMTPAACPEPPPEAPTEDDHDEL

COCCCCCCCCCN1C[C@H](O)[C@@H](O)[C@H](O)[C@H]1CO [UV-4B, N-(9′-methoxynonyl)-1-deoxynojirimycin hydrochloride]
IC50 (Mouse ER α-glucosidase I): 160 nM | free oligosaccharide (Glc1Man4GlcNAc1) accumulation in human MDMΦs [1]: UV-4B led to accumulation of FOS representative of inhibition of both α-glucosidases
